The source of these data is patent publication US20240382471A1, “GLUCAGON-LIKE PEPTIDE-1 RECEPTOR MODULATORS AND USES THEREOF” (HEPAGENE THERAPEUTICS (HK) LIMITED, priority 2021, published 2024).

In this test the target is GLP1R (Homo sapiens, UniProt P43220). Briefly: GLP1R cAMP assay (HTRF cAMP detection, agonist activity). The class given is cell-based. Details: host or cells: Flp-In-293. To be noted: Flp-In-293-GLP1R cells, 30 min at 37° C., read-out: EC50 (nM) Assay 1. Here is the method: GLP1R-mediated agonist activity was determined with a cell-based functional assay utilizing an HTRF (Homogeneous Time-Resolved Fluorescene) cAMP detection kit that measures CAMP levels in the cell. Reagents and equipment used in the assay are listed below, followed by the protocol.
Sequence of GLP1R (P43220 24-463, species assumed): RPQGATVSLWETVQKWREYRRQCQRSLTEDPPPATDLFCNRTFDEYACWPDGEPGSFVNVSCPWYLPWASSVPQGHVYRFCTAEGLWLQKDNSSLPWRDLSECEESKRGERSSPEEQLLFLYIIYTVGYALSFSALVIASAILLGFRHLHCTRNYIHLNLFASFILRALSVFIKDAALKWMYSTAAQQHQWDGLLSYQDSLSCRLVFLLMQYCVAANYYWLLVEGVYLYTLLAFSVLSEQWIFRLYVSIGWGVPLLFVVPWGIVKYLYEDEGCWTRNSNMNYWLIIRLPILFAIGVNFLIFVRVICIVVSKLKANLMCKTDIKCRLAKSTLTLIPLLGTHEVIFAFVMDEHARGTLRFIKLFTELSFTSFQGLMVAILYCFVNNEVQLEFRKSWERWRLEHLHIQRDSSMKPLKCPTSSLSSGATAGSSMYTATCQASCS
• 1) Cell Line: Flp-In-293-GLP1R (constructed by Pharmaron Beijing Co., Ltd) • 2) Complete Medium: DMEM+10% FBS+1×Penicillin-Streptomycin+200 μg/mL HB • 3) Assay Buffer: 1×HBSS+20 mM HEPES+0.1% BSA+500 μM IBMX
• a) Seed Flpin-293-GLP1R cells at 20,000 cells/well into 384 well assay plate (6007680-50, PE) using complete medium. • b) Prepare 4×compound working solution with assay buffer. • c) Add 5 μL 4×compound working solution into cell plate, incubate 30 min at 37° C. • d) Dilute Eu-cAMP tracer (1/50) with lysis buffer and add 10 μl/well to assay plate. • e) Dilute Ulight-anti-cAMP (1/150) with lysis buffer and add 10 μl/well to assay plate. • f) Incubate 1 h at RT. • g) Read the plate at wavelengths of 665 nm and 615 nm on Envision 2105 plate reader.
• 3.1% Activity is calculated as follow:
% Activity=100−(Signalcmpd−SignalAve_PC)/(SignalAve_VC−SignalAve_PC)×100. • 3.2 Calculate EC50 and Plot effect-dose curve of cmpds:
Y=Bottom+(Top−Bottom)/(1+10^((Log EC50−X)*Hill Slope)) • X: log of agonist concentration; Y: % Activity.
For orientation: Cyclic AMP is a second messenger, typically raised through Gs and lowered through Gi signalling.
Broadly, the EC50 is the concentration needed to bring the measured effect to its halfway point. “2-((3-(6-((4-cyano-2-fluorobenzyl)oxy)pyridin-2-yl)-3,8-diazabicyclo[3.2.1]octan-8-yl)methyl)-1-((oxetan-2-yl)methyl)-1H-benzo[d]imidazole-6-carboxylic acid [Compound 2-30]”: the EC50 stood at 0.375 nM.

Turning to `N#Cc1ccc(COc2ccnc(C34CCN(Cc5nc6ccc(C(=O)O)cc6n5C[C@@H]5CCO5)CC3C4)c2)c(F)c1` (single isomer, unassigned) [Compound 1-2-A], the EC50 was greater than 4 nM.

Consider `N#Cc1ccc(COc2ccnc(C34CCN(Cc5nc6ccc(C(=O)O)cc6n5C[C@@H]5CCO5)CC3C4)c2)c(F)c1` (single isomer, unassigned) [Compound 1-2-B], for which the EC50 is greater than 4 nM.

Turning to `N#Cc1ccc(COc2cccc(C34CCN(Cc5nc6ccc(C(=O)O)cc6n5C[C@@H]5CCO5)CC3C4)c2)c(F)c1` (single isomer, unassigned) [Compound 1-9-A], the EC50 worked out at 1.01 nM.

With `N#Cc1ccc(COc2cccc(C34CCN(Cc5nc6ccc(C(=O)O)cc6n5C[C@@H]5CCO5)CC3C4)c2)c(F)c1` (single isomer, unassigned) [Compound 1-9-B], the EC50 turned out to be 1.05 nM.

With `N#Cc1ccc(COc2ccnc(C34CCN(Cc5nc6ccc(C(=O)O)cc6n5C[C@@H]5CCO5)CC3C4)n2)c(F)c1` (single isomer, unassigned) [Compound 1-11-A], the 50% effective concentration (EC50) worked out at 0.995 nM.

As to `N#Cc1ccc(COc2ccnc(C34CCN(Cc5nc6ccc(C(=O)O)cc6n5C[C@@H]5CCO5)CC3C4)n2)c(F)c1` (single isomer, unassigned) [Compound 1-11-B], the EC50 worked out at 0.017 nM.

As to `COc1cc(C#N)ccc1COc1cccc(C23CCN(Cc4nc5ccc(C(=O)O)cc5n4C[C@@H]4CCO4)CC2C3)n1` (stereo partly drawn) [Compound 1-6, 2-((6-(6-((4-cyano-2-methoxybenzyl)oxy)pyridin-2-yl)-3-azabicyclo[4.1.0]heptan-3-yl)methyl)-1-(((S)-oxetan-2-yl)methyl)-1H-benzo[d]imidazole-6-carboxylic acid], the EC50 came out at 0.003 nM.

Turning to `N#Cc1ccc(COc2cccc(C34CCN(Cc5nc6ccc(C(=O)O)cc6n5C[C@@H]5CCO5)CC3C4)n2)cc1F` (stereo partly drawn) [Compound 1-7, 2-((6-(6-((4-cyano-3-fluorobenzyl)oxy)pyridin-2-yl)-3-azabicyclo[4.1.0]heptan-3-yl)methyl)-1-(((S)-oxetan-2-yl)methyl)-1H-benzo[d]imidazole-6-carboxylic acid], the EC50 amounted to 0.175 nM.

As to `N#Cc1ccc(COc2ccnc(C34CCN(Cc5nc6ccc(C(=O)O)cc6n5C[C@@H]5CCO5)CC3C4)n2)c(F)c1` (stereo partly drawn) [Compound 1-11, 2-((6-(4-((4-cyano-2-fluorobenzyl)oxy)pyrimidin-2-yl)-3-azabicyclo[4.1.0]heptan-3-yl)methyl)-1-(((S)-oxetan-2-yl)methyl)-1H-benzo[d]imidazole-6-carboxylic acid], the half-maximal effective concentration (EC50) amounted to 0.079 nM.

With `N#Cc1ccc(COc2cccc(N3CC4CCC(C3)N4Cc3nc4ccc(C(=O)O)cc4n3C[C@@H]3CCO3)n2)c(F)c1` [Compound 2, 2-((−3-(6-((4-cyano-2-fluorobenzyl)oxy)pyridin-2-yl)-3,8-diazabicyclo[3.2.1]octan-8-yl)methyl)-1-(((S)-oxetan-2-yl)methyl)-1H-benzo[d]imidazole-6-carboxylic acid], the concentration giving a half-maximal response (EC50) is 1.22 nM.

Regarding `N#Cc1ccc(COc2cccc(N3C4CC3CN(Cc3nc5ccc(C(=O)O)cc5n3C[C@@H]3CCO3)C4)n2)c(F)c1` [Compound 2-2, 2-((6-(6-((4-cyano-2-fluorobenzyl)oxy)pyridin-2-yl)-3,6-diazabicyclo[3.1.1]heptan-3-yl)methyl)-1-(((S)-oxetan-2-yl)methyl)-1H-benzo[d]imidazole-6-carboxylic acid], the EC50 is greater than 4 nM.

Take `O=C(O)c1ccc2nc(CN3C4CC3CN(c3cccc(OCc5ccc(Cl)cc5F)n3)C4)n(C[C@@H]3CCO3)c2c1` [Compound 2-3, 2-((−3-(6-((4-chloro-2-fluorobenzyl)oxy)pyridin-2-yl)-3,6-diazabicyclo[3.1.1]heptan-6-yl)methyl)-1-(((S)-oxetan-2-yl)methyl)-1H-benzo[d]imidazole-6-carboxylic acid]: the EC50 was greater than 4 nM.

Consider `N#Cc1ccc(COc2cccc(N3CC4CCC(C3)N4Cc3nc4ccc(C(=O)O)cc4n3C[C@@H]3CCO3)n2)cc1` [Compound 2-4, 2-[(3-{6-[(4-cyanophenyl)methoxy]pyridin-2-yl}-3,8-diazabicyclo[3.2.1]octan-8-yl)methyl]-3-[(2S)-oxetan-2-ylmethyl]-1,3-benzodiazole-5-carboxylic acid], for which the EC50 is greater than 4 nM.

In the case of `O=C(O)c1ccc2nc(CN3C4CCC3CN(c3cccc(OCc5ccncc5)n3)C4)n(C[C@@H]3CCO3)c2c1` [Compound 2-5, 3-[(2S)-oxetan-2-ylmethyl]-2-({3-[6-(pyridin-4-ylmethoxy)pyridin-2-yl]-3,8-diazabicyclo[3.2.1]octan-8-yl}methyl)-1,3-benzodiazole-5-carboxylic acid], the 50% effective concentration (EC50) is greater than 4 nM.

As for `O=C(O)c1ccc2nc(CN3C4CCC3CN(c3cccc(OCc5ccc(Cl)cc5F)n3)C4)n(C[C@@H]3CCO3)c2c1` [Compound 2-6, 2-[(3-{6-[(4-chloro-2-fluorophenyl)methoxy]pyridin-2-yl}-3,8-diazabicyclo[3.2.1]octan-8-yl)methyl]-3-[(2S)-oxetan-2-ylmethyl]-1,3-benzodiazole-5-carboxylic acid], the EC50 stood at 0.643 nM.

As to `O=C(O)c1ccc2nc(CN3C4CCC3CN(c3cccc(OCc5ccc(F)cc5F)n3)C4)n(C[C@@H]3CCO3)c2c1` [Compound 2-7, 2-((−3-(6-((2,4-difluorobenzyl)oxy)pyridin-2-yl)-3,8-diazabicyclo[3.2.1]octan-8-yl)methyl)-1-(((S)-oxetan-2-yl)methyl)-1H-benzo[d]imidazole-6-carboxylic acid], the EC50 is greater than 4 nM.

As for `Cc1ccc(COc2cccc(N3CC4CCC(C3)N4Cc3nc4ccc(C(=O)O)cc4n3C[C@@H]3CCO3)n2)c(F)c1` [Compound 2-8, 2-[(3-{6-[(2-fluoro-4-methylphenyl)methoxy]pyridin-2-yl}-3,8-diazabicyclo[3.2.1]octan-8-yl)methyl]-3-[(2S)-oxetan-2-ylmethyl]-1,3-benzodiazole-5-carboxylic acid], the half-maximal effective concentration (EC50) was greater than 4 nM.

For `N#Cc1ccc(COc2cccc(N3CC4CCC(C3)N4Cc3nc4ccc(C(=O)O)cc4n3CC3CCO3)n2)c(F)c1` (stereo not shown) [Compound 2-9, 2-((−3-(6-((4-cyano-2-fluorobenzyl)oxy)pyridin-2-yl)-3,8-diazabicyclo[3.2.1]octan-8-yl)methyl)-1-(oxetan-2-ylmethyl)-1H-benzo[d]imidazole-6-carboxylic acid], the EC50 was greater than 4 nM.

Take `N#Cc1ccc(COc2cccc(N3CC4CCC(C3)N4Cc3nc4ccc(C(=O)O)cc4n3C[C@@H]3CCCO3)n2)c(F)c1` [Compound 2-10, 2-((−3-(6-((4-cyano-2-fluorobenzyl)oxy)pyridin-2-yl)-3,8-diazabicyclo[3.2.1]octan-8-yl)methyl)-1-(((S)-tetrahydrofuran-2-yl)methyl)-1H-benzo[d]imidazole-6-carboxylic acid]: the EC50 is greater than 4 nM.

As for `N#Cc1ccc(COc2cccc(N3CC4CCC(C3)N4Cc3nc4ccc(C(=O)O)cc4n3CC3CCOC3)n2)c(F)c1` (stereo not shown) [Compound 2-11, 2-[(3-{6-[(4-cyano-2-fluorophenyl)methoxy]pyridin-2-yl}-3,8-diazabicyclo[3.2.1]octan-8-yl)methyl]-3-(oxolan-3-ylmethyl)-1,3-benzodiazole-5-carboxylic acid], the EC50 was greater than 4 nM.

Regarding `N#Cc1ccc(COc2cccc(N3CC4CCC(C3)N4Cc3nc4ccc(C(=O)O)cc4n3Cc3ncco3)n2)c(F)c1` [Compound 2-12, 2-((−3-(6-((4-cyano-2-fluorobenzyl)oxy)pyridin-2-yl)-3,8-diazabicyclo[3.2.1]octan-8-yl)methyl)-1-(oxazol-2-ylmethyl)-1H-benzo[d]imidazole-6-carboxylic acid], the EC50 was greater than 4 nM.

As to `O=C(O)c1ccc2nc(CN3C4CCC3CN(c3cccc(OCc5ccncc5F)n3)C4)n(C[C@@H]3CCO3)c2c1` [Compound 2-13, 2-[(3-{6-[(3-fluoropyridin-4-yl)methoxy]pyridin-2-yl}-3,8-diazabicyclo[3.2.1]octan-8-yl)methyl]-3-[(2S)-oxetan-2-ylmethyl]-1,3-benzodiazole-5-carboxylic acid], the EC50 is greater than 4 nM.

With `CS(=O)(=O)c1ccc(COc2cccc(N3CC4CCC(C3)N4Cc3nc4ccc(C(=O)O)cc4n3C[C@@H]3CCO3)n2)cc1` [Compound 2-14, 2-((−3-(6-((4-(methylsulfonyl)benzyl)oxy)pyridin-2-yl)-3,8-diazabicyclo[3.2.1]octan-8-yl)methyl)-1-(((S)-oxetan-2-yl)methyl)-1H-benzo[d]imidazole-6-carboxylic acid], the EC50 is greater than 4 nM.

For the compound `O=C(O)c1ccc2nc(CN3C4CCC3CN(c3cccc(OCc5ccc(C(F)(F)F)cc5F)n3)C4)n(C[C@@H]3CCO3)c2c1` [Compound 2-15, 2-((−3-(6-((2-fluoro-4-(trifluoromethyl)benzyl)oxy)pyridin-2-yl)-3,8-diazabicyclo[3.2.1]octan-8-yl)methyl)-1-(((S)-oxetan-2-yl)methyl)-1H-benzo[d]imidazole-6-carboxylic acid], the EC50 is greater than 4 nM.
